{"source": "patent US6455540B1", "about": "“Methods of use of quinolone compounds against anaerobic pathogenic bacteria” (priority 1999, dated 2002)", "key": {"[1]": {"test_system": "Prevotella intermedia", "assay": "Agar dilution MIC", "format": "cell-based"}, "[2]": {"test_system": "Porphyromonas macaccae", "assay": "Agar dilution MIC", "format": "cell-based"}, "[3]": {"test_system": "peptostreptococci", "assay": "Agar dilution MIC, peptostreptococci as a group", "format": "cell-based, P. asaccharolyticus, P. magnus, P. micros, P. prevotii", "conditions": "45 strains of peptostreptococci from 4 species; read-out: concentration to which all strains were susceptible (MIC)"}, "[4]": {"test_system": "Porphyromonas canoris", "assay": "Agar dilution MIC", "format": "cell-based"}, "[5]": {"test_system": "Clostridium ramosum", "assay": "Agar dilution MIC", "format": "cell-based"}, "[6]": {"test_system": "Peptostreptococcus magnus", "assay": "Agar dilution MIC", "format": "cell-based", "conditions": "Finegoldia magna"}, "[7]": {"test_system": "Actinomyces odontolyticus", "assay": "Agar dilution MIC", "format": "cell-based"}, "[8]": {"test_system": "Anaerobiospirillum thomasii", "assay": "Agar dilution MIC", "format": "cell-based"}, "[9]": {"test_system": "Veillonella spp.", "assay": "Agar dilution MIC", "format": "cell-based"}, "[10]": {"test_system": "Bacteroides ureolyticus", "assay": "Agar dilution MIC", "format": "cell-based"}, "[11]": {"test_system": "Peptostreptococcus micros", "assay": "Agar dilution MIC", "format": "cell-based"}, "[12]": {"test_system": "Prevotella heparinolytica", "assay": "Agar dilution MIC", "format": "cell-based"}, "[13]": {"test_system": "Prevotella bivia", "assay": "Agar dilution MIC", "format": "cell-based"}, "[14]": {"test_system": "Bacteroides tectum", "assay": "Agar dilution MIC", "format": "cell-based"}, "[15]": {"test_system": "Actinomyces israelii", "assay": "Agar dilution MIC", "format": "cell-based"}, "[16]": {"test_system": "Prevotella denticola/loeschii group", "assay": "Agar dilution MIC", "format": "cell-based"}, "[17]": {"test_system": "Porphyromonas gingivalis", "assay": "Agar dilution MIC", "format": "cell-based", "conditions": "Porphyromonas gingivalis"}, "[18]": {"test_system": "certain Porphyromonas strains", "conditions": "Goldstein, et al.; cited from earlier work"}, "[19]": {"conditions": "read-out: Minimal Inhibitory Concentration 50% (MIC50)"}, "[20]": {"conditions": "13 isolates, read-out: Minimal Inhibitory Concentration 90% (MIC90)"}}, "data": [{"smiles": "CO/N=C1\\CN(c2nc3c(cc2F)c(=O)c(C(=O)O)cn3C2CC2)CC1CN", "note": "(racemic) [Gemifloxacin, (R,S)-7-(3-aminomethyl-4-methoxyiminopyrrolidin-1-yl)-1-cyclopropyl-6-fluoro-4-oxo-1,4-dihydro-1,8-naphthyridine-3-carboxylic acid]", "values": [{"measurement": "Minimal Inhibitory Concentration 90% (MIC90)", "setting": "[1]; 11 isolates", "value": 0.5, "unit": "µg/mL"}, {"measurement": "Minimal Inhibitory Concentration Range", "setting": "[1]; 11 isolates", "value": "0.06 to 1", "unit": "µg/mL"}, {"measurement": "Minimal Inhibitory Concentration 90% (MIC90)", "setting": "[1]; 11 isolates, listed as gemifloxacin", "value": "≤ 2", "unit": "µg/mL"}, {"measurement": "MIC50", "setting": "[1]; Prevotella intermedia, read-out: Minimal Inhibitory Concentration 50% (MIC50)", "value": 0.25, "unit": "µg/mL"}, {"measurement": "Minimal Inhibitory Concentration Range", "setting": "[2]; 13 isolates", "value": "0.03 to 0.125", "unit": "µg/mL"}, {"measurement": "MIC50", "setting": "[2]; Porphyromonas, read-out: Minimal Inhibitory Concentration 50% (MIC50)", "value": 0.06, "unit": "µg/mL"}, {"measurement": "MIC90", "setting": "[2]; Porphyromonas, 13 isolates, read-out: Minimal Inhibitory Concentration 90% (MIC90)", "value": 0.125, "unit": "µg/mL"}, {"measurement": "MIC", "setting": "[3]", "value": "≤ 0.25", "unit": "µg/mL"}, {"measurement": "Minimal Inhibitory Concentration Range", "setting": "[4]; 10 isolates", "value": "0.06 to 0.25", "unit": "µg/mL"}, {"measurement": "MIC50", "setting": "[4]; Porphyromonas canoris, read-out: Minimal Inhibitory Concentration 50% (MIC50)", "value": 0.25, "unit": "µg/mL"}, {"measurement": "MIC90", "setting": "[4]; Porphyromonas canoris, 10 isolates, read-out: Minimal Inhibitory Concentration 90% (MIC90)", "value": 0.25, "unit": "µg/mL"}, {"measurement": "Minimal Inhibitory Concentration Range", "setting": "[5]; 10 isolates", "value": "0.125 to 2", "unit": "µg/mL"}, {"measurement": "MIC50", "setting": "[5]; Thomasclavelia ramosa, read-out: Minimal Inhibitory Concentration 50% (MIC50)", "value": 0.25, "unit": "µg/mL"}, {"measurement": "MIC90", "setting": "[5]; Thomasclavelia ramosa, 10 isolates, read-out: Minimal Inhibitory Concentration 90% (MIC90)", "value": 1, "unit": "µg/mL"}, {"measurement": "MIC50", "setting": "[6]; [19]", "value": 0.03, "unit": "µg/mL"}, {"measurement": "MIC90", "setting": "[6]; [20]", "value": 0.06, "unit": "µg/mL"}, {"measurement": "Minimal Inhibitory Concentration 90% (MIC90)", "setting": "[7]; 10 isolates", "value": 2, "unit": "µg/mL"}, {"measurement": "Minimal Inhibitory Concentration Range", "setting": "[7]; 10 isolates", "value": "1 to 2", "unit": "µg/mL"}, {"measurement": "MIC90", "setting": "[7]; Schaalia odontolytica, 10 isolates, read-out: Minimal Inhibitory Concentration 90% (MIC90)", "value": "≤ 2", "unit": "µg/mL"}, {"measurement": "MIC50", "setting": "[7]; Schaalia odontolytica, read-out: Minimal Inhibitory Concentration 50% (MIC50)", "value": 2, "unit": "µg/mL"}, {"measurement": "Minimal Inhibitory Concentration Range", "setting": "[8]; 13 isolates", "value": "0.06 to 0.25", "unit": "µg/mL"}, {"measurement": "MIC50", "setting": "[8]; Anaerobiospirillum thomasii, read-out: Minimal Inhibitory Concentration 50% (MIC50)", "value": 0.125, "unit": "µg/mL"}, {"measurement": "MIC90", "setting": "[8]; Anaerobiospirillum thomasii, 13 isolates, read-out: Minimal Inhibitory Concentration 90% (MIC90)", "value": 0.125, "unit": "µg/mL"}, {"measurement": "Minimal Inhibitory Concentration 90% (MIC90)", "setting": "[9]; 24 isolates", "value": 8, "unit": "µg/mL"}, {"measurement": "MIC90", "setting": "[9]; Veillonella, 24 isolates, read-out: Minimal Inhibitory Concentration 90% (MIC90)", "value": "≥ 4", "unit": "µg/mL"}, {"measurement": "MIC50", "setting": "[9]; Veillonella, read-out: Minimal Inhibitory Concentration 50% (MIC50)", "value": 1, "unit": "µg/mL"}, {"measurement": "Minimal Inhibitory Concentration 90% (MIC90)", "setting": "[10]; 17 isolates", "value": 2, "unit": "µg/mL"}, {"measurement": "MIC90", "setting": "[10]; Campylobacter ureolyticus, 17 isolates, read-out: Minimal Inhibitory Concentration 90% (MIC90)", "value": "≤ 2", "unit": "µg/mL"}, {"measurement": "MIC50", "setting": "[10]; Campylobacter ureolyticus, read-out: Minimal Inhibitory Concentration 50% (MIC50)", "value": "≤ 0.015", "unit": "µg/mL"}, {"measurement": "Minimal Inhibitory Concentration Range", "setting": "[11]; 12 isolates", "value": "0.06 to 0.125", "unit": "µg/mL"}, {"measurement": "MIC50", "setting": "[11]; Parvimonas micra, read-out: Minimal Inhibitory Concentration 50% (MIC50)", "value": 0.06, "unit": "µg/mL"}, {"measurement": "MIC90", "setting": "[11]; Parvimonas micra, 12 isolates, read-out: Minimal Inhibitory Concentration 90% (MIC90)", "value": 0.06, "unit": "µg/mL"}, {"measurement": "Minimal Inhibitory Concentration 90% (MIC90)", "setting": "[12]; 16 isolates", "value": 0.5, "unit": "µg/mL"}, {"measurement": "Minimal Inhibitory Concentration Range", "setting": "[12]; 16 isolates", "value": "0.25 to 0.5", "unit": "µg/mL"}, {"measurement": "Minimal Inhibitory Concentration 90% (MIC90)", "setting": "[12]; 16 isolates, listed as gemifloxacin", "value": "≤ 2", "unit": "µg/mL"}, {"measurement": "MIC50", "setting": "[12]; Prevotella heparinolytica, read-out: Minimal Inhibitory Concentration 50% (MIC50)", "value": 0.5, "unit": "µg/mL"}, {"measurement": "Minimal Inhibitory Concentration 90% (MIC90)", "setting": "[13]; 21 isolates", "value": 8, "unit": "µg/mL"}, {"measurement": "MIC90", "setting": "[13]; Prevotella bivia, 21 isolates, read-out: Minimal Inhibitory Concentration 90% (MIC90)", "value": "≥ 4", "unit": "µg/mL"}, {"measurement": "MIC50", "setting": "[13]; Prevotella bivia, read-out: Minimal Inhibitory Concentration 50% (MIC50)", "value": 8, "unit": "µg/mL"}, {"measurement": "Minimal Inhibitory Concentration 90% (MIC90)", "setting": "[14]; 22 isolates", "value": 0.25, "unit": "µg/mL"}, {"measurement": "Minimal Inhibitory Concentration Range", "setting": "[14]; 22 isolates", "value": "0.06 to 8", "unit": "µg/mL"}, {"measurement": "Minimal Inhibitory Concentration 90% (MIC90)", "setting": "[14]; 22 isolates, listed as gemifloxacin", "value": "≤ 2", "unit": "µg/mL"}, {"measurement": "MIC50", "setting": "[14]; Bacteroides pyogenes, read-out: Minimal Inhibitory Concentration 50% (MIC50)", "value": 0.125, "unit": "µg/mL"}, {"measurement": "Minimal Inhibitory Concentration Range", "setting": "[15]; 6 isolates", "value": "0.5 to 2", "unit": "µg/mL"}, {"measurement": "MIC50", "setting": "[15]; Actinomyces israelii, read-out: Minimal Inhibitory Concentration 50% (MIC50)", "value": 1, "unit": "µg/mL"}, {"measurement": "MIC90", "setting": "[15]; Actinomyces israelii, stated in text only", "value": "≤ 2", "unit": "µg/mL"}, {"measurement": "Minimal Inhibitory Concentration Range", "setting": "[16]; 6 isolates", "value": "0.25 to 8", "unit": "µg/mL"}, {"measurement": "MIC50", "setting": "[16]; Prevotella denticola, read-out: Minimal Inhibitory Concentration 50% (MIC50)", "value": 0.5, "unit": "µg/mL"}, {"measurement": "MIC50", "setting": "[17]; [19]", "value": 0.06, "unit": "µg/mL"}, {"measurement": "MIC90", "setting": "[17]; [20]", "value": 0.125, "unit": "µg/mL"}, {"measurement": "activity", "setting": "[18]", "value": "showed activity"}]}]}
